Experimental data: patent US10703721B2, “Caffeic acid derivatives and uses thereof” (Board of Regents, The University of Texas System, priority 2017, dated 2020)

What was measured:
Assay in all cases: Cytotoxicity assay (MTS, 72 hours)
Colo357-FG = type: cell-based, human
Description: (§1) Tumor cell lines were maintained in DMEM with 10% fetal bovine serum (FBS), 100 microg/ml streptomycin, and 100 IU/ml penicillin in 5% CO2 at 37° C.
Colo357-FG and Colo357-L3: Colo357-FG, a fast-growing variant produced regional lymph node metastasis in 58% of nude mice after subcutaneous implantation and growth. It also produced hepatic metastasis in 64% and pulmonary metastasis in 43% of nude mice after intrasplenic implantation of tumor cells. See Vezeridis et al. (1990).
(§2) For the cytotoxicity assays, 1,500 tumor cells were plated into 96-well flat-bottom tissue culture plates in complete medium (see Tables 2 and 3). After 20 hours fresh media containing different concentrations of compounds disclosed herein added. Cell number was counted after 72 hours by using MTS assay (Promega CellTiter AQ Non-Radioactive Cell Proliferation Assay kit, Madison, Wis., USA) by measuring absorbance at 490 nm with a 96-well plate reader. Data are presented as IC50 values derived from relative inhibition of proliferation plus SD of eight measurements. The number of cells in the presence of DMSO was taken as 100%.

MDA-PATC-53 = type: cell-based
Description: as §1, §2

231-MB = type: cell-based; conditions: Table 3, Breast
Description: as §1, §2

231 = type: cell-based; conditions: Table 3, Breast
Description: as §1, §2

4T1 = type: cell-based
Description: as §1, §2

A375 = type: cell-based
Description: as §1, §2

BT-58 = type: cell-based; conditions: Table 3, Ependymoma
Description: as §1, §2

BT483 = type: cell-based
Description: as §1, §2

D423 enol = type: cell-based; conditions: Table 3, GBM
Description: as §1, §2

D423 = type: cell-based; conditions: Table 3, GBM
Description: as §1, §2

HH = type: cell-based; conditions: Table 3, CTCL
Description: as §1, §2

HuT78 = type: cell-based
Description: as §1, §2

LN319 = type: cell-based; conditions: LN-319, Table 3, GBM
Description: as §1, §2

LNZ-428 = type: cell-based; conditions: Table 3, GBM
Description: as §1, §2

MDA-PATC-108 = type: cell-based; conditions: Table 3, Panc
Description: as §1, §2

MDA-PATC-148 = type: cell-based; conditions: Table 3, Panc
Description: as §1, §2

MDA-PATC-153 = type: cell-based; conditions: Table 3, Panc
Description: as §1, §2

MIA-PaCa-2 = type: cell-based
Description: as §1, §2

Ovcar-5 = type: cell-based
Description: as §1, §2

PC3 = type: cell-based
Description: as §1, §2

SK-MEL-28 = type: cell-based
Description: as §1, §2

SU.86.86 = type: cell-based
Description: as §1, §2

U87MG = type: cell-based; conditions: Table 3, GBM
Description: as §1, §2

WM35 = type: cell-based
Description: as §1, §2

HD2 = type: cell-based; conditions: Table 3, Myeloma
Description: as §2, with “After” for “For the cytotoxicity assays, 1,500 tumor cells were plated into 96-well flat-bottom tissue culture plates in complete medium (see Tables 2 and 3). After”

WM793 = type: cell-based, human
Description: as §1
WM793 human melanoma tumor cell lines were used from different stages of progression and their biological and molecular analyses. See Satyamoorthy et al. (1997).
as §2

[1] = Homo sapiens, COLO 357/FG, 72 h, Table 2, Colo357-FG
[2] = MDA-PATC53, 72 h, Table 2, MDA-PATC-53

## CCC(CC)(NC(=O)/C(C#N)=C/c1cccc(Cl)n1)c1ccc(OCCN2CCOCC2)cc1 [WP 1793]
Colo357-FG; Table 2, Colo357-FG
  IC50: 800 nM
MDA-PATC-53; Table 2, MDA-PATC-53
  IC50: 1000 nM

## CCN(CC)CCOc1ccc(C(CC)(CC)NC(=O)/C(C#N)=C/c2cccc(Cl)n2)cc1 [WP 1794]
Colo357-FG; [1]
  IC50: 600 nM
MDA-PATC-53; [2]
  IC50: 900 nM

## CCC(CC)(NC(=O)/C(C#N)=C/c1cccc(Cl)n1)c1ccc(OCCN2CCOCC2)cc1 [WP 1721, (E)-3-(6-chloropyridin-2-yl)-2-cyano-N-(3-(4-(2-morpholinoethoxy)phenyl)pentan-3-yl)acrylamide]
Colo357-FG; [1]
  IC50: 1100 nM
MDA-PATC-53; [2]
  IC50: 1100 nM

## CCC(CC)(NC(=O)/C(C#N)=C/c1cccc(Cl)n1)c1ccc(OCCOCCN2CCN(C)CC2)cc1 [WP 1731, (E)-3-(6-chloropyridin-2-yl)-2-cyano-N-(3-(4-(2-(2-(4-methylpiperazin-1-yl)ethoxy)ethoxy)phenyl)pentan-3-yl)acrylamide]
Colo357-FG; [1]
  IC50: 1500 nM
MDA-PATC-53; [2]
  IC50: 1800 nM

## CCCC(CCC)(NC(=O)/C(C#N)=C/c1cccc(Cl)n1)c1ccc(OCCN(CC)CC)cc1 [WP 1734, (E)-3-(6-chloropyridin-2-yl)-2-cyano-N-(4-(4-(2-(diethylamino)ethoxy)phenyl)heptan-4-yl)acrylamide]
Colo357-FG; [1]
  IC50: 1500 nM
MDA-PATC-53; [2]
  IC50: 1600 nM

## CCN(CC)CCOc1ccc(C(CC)(CC)NC(=O)/C(C#N)=C/c2ccccn2)cc1 [WP 1727, (E)-2-cyano-N-(3-(4-(2-(diethylamino)ethoxy)phenyl)pentan-3-yl)-3-(pyridin-2-yl)acrylamide]
Colo357-FG; [1]
  IC50: 2200 nM
MDA-PATC-53; [2]
  IC50: 3000 nM

## CCN(CC)CCOc1ccc(C(CC)(CC)NC(=O)/C(C#N)=C/c2cccc(Cl)n2)cc1 [WP 1722, (E)-3-(6-chloropyridin-2-yl)-2-cyano-N-(3-(4-(2-(diethylamino)ethoxy)phenyl)pentan-3-yl)acrylamide]
Colo357-FG; Table 2, Colo357-FG
  IC50: 1200 nM
MDA-PATC-53; Table 2, MDA-PATC-53
  IC50: 1100 nM

## CCC(CC)(NC(=O)/C(C#N)=C/c1ccccn1)c1ccc(OCCOCCN2CCOCC2)cc1 [WP 1724, (E)-2-cyano-N-(3-(4-(2-(2-morpholinoethoxy)ethoxy)phenyl)pentan-3-yl)-3-(pyridin-2-yl)acrylamide]
Colo357-FG; [1]
  IC50: 2800 nM
MDA-PATC-53; [2]
  IC50: 3500 nM

## CCCC(CCC)(NC(=O)/C(C#N)=C/c1cccc(Cl)n1)c1ccc(OCCN2CCOCC2)cc1 [WP 1733, (E)-3-(6-chloropyridin-2-yl)-2-cyano-N-(4-(4-(2-morpholinoethoxy)phenyl)heptan-4-yl)acrylamide]
Colo357-FG; [1]
  IC50: 950 nM
MDA-PATC-53; [2]
  IC50: 1100 nM

## CCC(CC)(NC(=O)/C(C#N)=C/c1cccc(Cl)n1)c1ccc(OCCOCCN2CCOCC2)cc1 [WP 1723, (E)-3-(6-chloropyridin-2-yl)-2-cyano-N-(3-(4-(2-(2-morpholinoethoxy)ethoxy)phenyl)pentan-3-yl)acrylamide]
Colo357-FG; [1]
  IC50: 1200 nM
MDA-PATC-53; [2]
  IC50: 1400 nM

## CCC(CC)(NC(=O)/C(C#N)=C/c1cccc(Cl)n1)c1ccc(OCCOCCN2CCN(C)CC2)cc1 [WP1732]
Colo357-FG; Homo sapiens, COLO 357/FG, 72 h, Table 3, Panc
  IC50: 2600 nM
231-MB
  IC50: 1500 nM
231
  IC50: 2800 nM
4T1; Mus musculus, 4T1, Table 3, Breast
  IC50: 4500 nM
A375; Homo sapiens, A-375, Table 3, Melanoma
  IC50: 1100 nM
BT-58
  IC50: 1800 nM
BT483; Homo sapiens, BT-483, Table 3, Breast
  IC50: 2300 nM
D423 enol
  IC50: 2500 nM
D423
  IC50: 1400 nM
HH; Homo sapiens, HH
  IC50: 3200 nM
HuT78; Homo sapiens, HuT78, Table 3, CTCL
  IC50: 2900 nM
LN319
  IC50: 2800 nM
LNZ-428
  IC50: 2300 nM
MDA-PATC-108
  IC50: 1600 nM
MDA-PATC-148
  IC50: 1900 nM
MDA-PATC-153
  IC50: 2600 nM
MDA-PATC-53; MDA-PATC53, 72 h, Table 3, Panc
  IC50: 1800 nM
MIA-PaCa-2; Homo sapiens, MIA PaCa-2, Table 3, Panc
  IC50: 1600 nM
Ovcar-5; Homo sapiens, OVCAR-5, Table 3, Ovarian
  IC50: 1700 nM
PC3; Homo sapiens, PC-3, Table 3, Prostate
  IC50: 1400 nM
SK-MEL-28; Homo sapiens, SK-MEL-28, Table 3, Melanoma
  IC50: 1800 nM
SU.86.86; Homo sapiens, SU.86.86, Table 3, Panc
  IC50: 1500 nM
U87MG; Homo sapiens, U-87 MG
  IC50: 1800 nM
WM35; WM35, Table 3, Melanoma
  IC50: 2300 nM
HD2
  IC50: 3800 nM
WM793; Homo sapiens, WM793, Table 3, Melanoma
  IC50: 1800 nM

## C[C@H](NC(=O)/C(C#N)=C/c1cccc(Br)n1)c1ccccc1 [WP1066, reference compound]
Colo357-FG; Table 2, Colo357-FG
  IC50: 2100 nM
Colo357-FG; Table 3, Panc
  IC50: 2000 nM
231-MB
  IC50: 1200 nM
231
  IC50: 4800 nM
4T1; Table 3, Breast
  IC50: 4400 nM
A375; Table 3, Melanoma
  IC50: 1500 nM
BT-58
  IC50: 1800 nM
BT483; Table 3, Breast
  IC50: 4200 nM
HH
  IC50: 2300 nM
HuT78; Table 3, CTCL
  IC50: 1900 nM
LNZ-428
  IC50: 1500 nM
MDA-PATC-108
  IC50: 2400 nM
MDA-PATC-53; Table 2, MDA-PATC-53
  IC50: 2400 nM
MDA-PATC-53; Table 3, Panc
  IC50: 2400 nM
MIA-PaCa-2; Table 3, Panc
  IC50: 1700 nM
Ovcar-5; Table 3, Ovarian
  IC50: 1700 nM
PC3; Table 3, Prostate
  IC50: 2300 nM
SK-MEL-28; Table 3, Melanoma
  IC50: 2000 nM
SU.86.86; Table 3, Panc
  IC50: 2500 nM
U87MG
  IC50: 1700 nM
WM35; Table 3, Melanoma
  IC50: 1300 nM
HD2
  IC50: 1700 nM
WM793; Table 3, Melanoma
  IC50: 2100 nM
